According to paper PMC7179312 (Antimicrobial Agents and Chemotherapy, 2020):

Tests used:
[1] = test system: P. aeruginosa PAM1154 carrying pUCP24-KPC-2 (PAM4135); assay: MIC, CLSI broth microdilution; format: cell-based; conditions: Pseudomonas aeruginosa; PAM4135, pUCP24-KPC-2; drug alone
Text: (§1) The effects of KPC mutations on resistance to various antibiotics were investigated. For these studies, pUCP24 plasmids carrying wild-type and mutant blaKPC-2 genes as well as the pUCP24 vector were transformed into PAM1154, an efflux-deficient strain of Pseudomonas aeruginosa. In this host, the effect of β-lactamases on β-lactam MIC is amplified due to the slowed uptake of β-lactams across the low-permeability outer membrane without interference by efflux of either β-lactams or BLIs. Consequently, this host allows detection of β-lactamase activity (as an MIC increase) of low-catalytic-efficiency enzymes that rely heavily on the low permeability of the outer membrane. Using the strain that lacks efflux pumps ensures no interference from efflux in interpreting results. We next evaluated the steady-state protein expression levels in bacterial cells.
(§2) For microbiological studies, wild-type blaKPC-2 and its mutant variants were cloned into the shuttle vector pUCP24. Resulting plasmids were transformed in the efflux-deficient strain of P. aeruginosa PAM1154 using selection on 15 μg/ml of gentamicin. Using a strain of P. aeruginosa as opposed to E. coli as a host for various cloned genes was based on the following consideration. As well documented elsewhere ([41]), P. aeruginosa has a low-permeability outer membrane; consequently, the effect of β-lactamases on MIC is amplified in P. aeruginosa compared to that in E. coli due to the slowed uptake of β-lactams. Thus, this host is appropriate to detect β-lactamase activity (as an MIC increase) of low-catalytic-efficiency enzymes that rely heavily on low permeability of the outer membrane. […] MICs were determined using the Clinical and Laboratory Standards Institute (CLSI) broth microdilution method as described in CLSI document M07-A11 ([42]). […] BLI potency was defined as PV50 (PV, potentiation value). PV50 is the minimal concentration of a BLI that is required to reduce the antibiotic MIC to the middle of the MIC range (E50) where the highest MIC is the MIC for a KPC-producing strain with no inhibitor added and the lowest MIC is the MIC for the vector-only strain, corresponding to the complete inhibition of KPC. E50 is calculated as the square root of the product of the antibiotic MICs for the KPC-producing and the vector-only strains.

[2] = test system: P. aeruginosa PAM1154 carrying pUCP24-KPC-2::D179Y (PAM4639); assay: MIC, CLSI broth microdilution; format: cell-based, Pseudomonas aeruginosa; conditions: for MIC: Pseudomonas aeruginosa, PAM4639, pUCP24-KPC-2::D179Y, drug alone
Text: as §1, §2

[3] = test system: P. aeruginosa PAM1154 carrying pUCP24-KPC-2::L169P (PAM4751); assay: MIC, CLSI broth microdilution; format: cell-based, Pseudomonas aeruginosa; conditions: for MIC: Pseudomonas aeruginosa, PAM4751, pUCP24-KPC-2::L169P, drug alone
Text: as §1, §2

[4] = test system: P. aeruginosa PAM1154 carrying KPC-2::D179Y (PAM4639); assay: Checkerboard potentiation of antibiotic activity by BLIs; format: cell-based, Pseudomonas aeruginosa; conditions: for Beta-lactam MIC in the presence of BLI: PAM4639 KPC-2 D179Y
Text: (§3) BLI potency was defined as PV50 (PV, potentiation value) of antibiotic potentiation. PV50 is the concentration of a BLI that is required to reduce the antibiotic MIC to the middle of the MIC range where the highest MIC is the MIC for a KPC-producing strain with no inhibitor added and the lowest MIC is the MIC for the vector-alone strain, which corresponds to complete inhibition of KPC. As a given MIC is directly related to the β-lactamase activity, PV50 might be considered the concentration of a BLI that is required to achieve half-effect of inhibition of β-lactamase activity (in whole cells) to hydrolyze an antibiotic of interest. […] However, the accurate determination of PV50 requires the MIC range to be relatively wide.
as §2
(§4) […]
(§5) […]

[5] = test system: P. aeruginosa PAM1154 carrying KPC-2::L169P (PAM4751); assay: as above; format: cell-based, Pseudomonas aeruginosa; conditions: for Beta-lactam MIC in the presence of BLI: PAM4751 KPC-2 L169P
Text: as §3, §2, §4, §5

[6] = test system: P. aeruginosa PAM1154 carrying wild-type KPC-2 (PAM4135); assay: as above; format: cell-based, Pseudomonas aeruginosa; conditions: PAM4135 KPC-2
Text: as §3, §2, §4, §5

O=C(O)C[C@@H]1CC[C@H](NC(=O)Cc2cccs2)B(O)O1 [Vaborbactam, vaborbactam]
MIC [1]: > 256 µg/mL | MIC [2]: > 256 µg/mL | MIC [3]: > 256 µg/mL | PV50 ([4]; PAM4639 KPC-2::D179Y, potentiation of cefepime): 1 µg/mL | PV50 ([4]; PAM4639 KPC-2::D179Y, potentiation of ceftazidime): 1 µg/mL | PV50 ([4]; PAM4639 KPC-2::D179Y, potentiation of piperacillin): 1 µg/mL | reduction of potency to enhance ceftazidime, cefepime or piperacillin vs wild-type KPC-2 ([5]; L169P, depending on the antibiotic): no more than 2 fold | PV50 ([5]; PAM4751 KPC-2::L169P, potentiation of cefepime): 1 µg/mL | PV50 ([5]; PAM4751 KPC-2::L169P, potentiation of ceftazidime): 1 µg/mL | PV50 ([5]; PAM4751 KPC-2::L169P, potentiation of piperacillin): 1 µg/mL | PV50 ([6]; potentiation of cefepime): 0.5 µg/mL | PV50 ([6]; potentiation of ceftazidime): 0.5 µg/mL | PV50 ([6]; potentiation of piperacillin): 1 µg/mL

CO/N=C(\C(=O)N[C@@H]1C(=O)N2C(C(=O)[O-])=C(C[N+]3(C)CCCC3)CS[C@H]12)c1csc(N)n1 [Cefepime, cefepime]
MIC [1]: 256 µg/mL | reduction of MIC vs wild-type KPC-2 strain ([2]; D179Y strain): 4 fold | MIC [2]: 64 µg/mL | increase of MIC vs vector-only strain ([2]; {}): 512 fold | reduction of MIC vs wild-type KPC-2 strain ([3]; L169P strain): 4 fold | MIC [3]: 64 µg/mL | increase of MIC vs vector-only strain ([3]; {}): 512 fold | Antibiotic MIC with avibactam at 4 μg/ml ([4]; PAM4639 KPC-2::D179Y, avibactam 4 μg/ml): 2 µg/mL | Antibiotic MIC, No BLI ([4]; PAM4639 KPC-2::D179Y, no BLI): 32 µg/mL | Antibiotic MIC with vaborbactam at 8 μg/ml ([4]; PAM4639 KPC-2::D179Y, vaborbactam 8 μg/ml): 0.25 µg/mL | Beta-lactam MIC in the presence of BLI ([4]; avibactam 0 µg/ml): 32 µg/mL | Beta-lactam MIC in the presence of BLI ([4]; avibactam 0.008 µg/ml): 32 µg/mL | Beta-lactam MIC in the presence of BLI ([4]; avibactam 0.031 µg/ml): 32 µg/mL | Beta-lactam MIC in the presence of BLI ([4]; avibactam 0.06 µg/ml): 32 µg/mL | Beta-lactam MIC in the presence of BLI ([4]; avibactam 0.5 µg/ml): 16 µg/mL | Beta-lactam MIC in the presence of BLI ([4]; avibactam 1 µg/ml): 4 µg/mL | Beta-lactam MIC in the presence of BLI ([4]; avibactam 2 µg/ml): 4 µg/mL | Beta-lactam MIC in the presence of BLI ([4]; avibactam 4 µg/ml): 2 µg/mL | Beta-lactam MIC in the presence of BLI ([4]; avibactam 8 µg/ml): 1 µg/mL | Beta-lactam MIC in the presence of BLI ([4]; avibactam 16 µg/ml): 0.5 µg/mL | Beta-lactam MIC in the presence of BLI ([4]; vaborbactam 0 µg/ml): 32 µg/mL | Beta-lactam MIC in the presence of BLI ([4]; vaborbactam 0.008 µg/ml): 32 µg/mL | Beta-lactam MIC in the presence of BLI ([4]; vaborbactam 0.031 µg/ml): 32 µg/mL | Beta-lactam MIC in the presence of BLI ([4]; vaborbactam 0.06 µg/ml): 32 µg/mL | Beta-lactam MIC in the presence of BLI ([4]; vaborbactam 0.5 µg/ml): 8 µg/mL | Beta-lactam MIC in the presence of BLI ([4]; vaborbactam 1 µg/ml): 1 µg/mL | Beta-lactam MIC in the presence of BLI ([4]; vaborbactam 2 µg/ml): 0.5 µg/mL | Antibiotic MIC with avibactam at 4 μg/ml ([5]; PAM4751 KPC-2::L169P, avibactam 4 μg/ml): 0.5 µg/mL | Antibiotic MIC, No BLI ([5]; PAM4751 KPC-2::L169P, no BLI): 32 µg/mL | Beta-lactam MIC in the presence of BLI ([5]; avibactam 0 µg/ml): 32 µg/mL | Beta-lactam MIC in the presence of BLI ([5]; avibactam 0.008 µg/ml): 32 µg/mL | Beta-lactam MIC in the presence of BLI ([5]; avibactam 0.031 µg/ml): 32 µg/mL | Beta-lactam MIC in the presence of BLI ([5]; avibactam 0.06 µg/ml): 32 µg/mL | Beta-lactam MIC in the presence of BLI ([5]; avibactam 0.5 µg/ml): 4 µg/mL | Beta-lactam MIC in the presence of BLI ([5]; avibactam 1 µg/ml): 2 µg/mL | Beta-lactam MIC in the presence of BLI ([5]; avibactam 2 µg/ml): 1 µg/mL | Beta-lactam MIC in the presence of BLI ([5]; avibactam 4 µg/ml): 0.5 µg/mL | Beta-lactam MIC in the presence of BLI ([5]; vaborbactam 0 µg/ml): 32 µg/mL | Beta-lactam MIC in the presence of BLI ([5]; vaborbactam 0.008 µg/ml): 32 µg/mL | Beta-lactam MIC in the presence of BLI ([5]; vaborbactam 0.031 µg/ml): 32 µg/mL | Beta-lactam MIC in the presence of BLI ([5]; vaborbactam 0.06 µg/ml): 32 µg/mL | Beta-lactam MIC in the presence of BLI ([5]; vaborbactam 0.5 µg/ml): 4 µg/mL | Beta-lactam MIC in the presence of BLI ([5]; vaborbactam 1 µg/ml): 0.5 µg/mL | Beta-lactam MIC in the presence of BLI ([6]; avibactam 0 µg/ml): 64 µg/mL | Beta-lactam MIC in the presence of BLI ([6]; avibactam 0.008 µg/ml): 64 µg/mL | Beta-lactam MIC in the presence of BLI ([6]; avibactam 0.031 µg/ml): 64 µg/mL | Beta-lactam MIC in the presence of BLI ([6]; avibactam 0.06 µg/ml): 32 µg/mL | Beta-lactam MIC in the presence of BLI ([6]; avibactam 0.5 µg/ml): 0.5 µg/mL | Antibiotic MIC, No BLI ([6]; no BLI): 64 µg/mL | Beta-lactam MIC in the presence of BLI ([6]; vaborbactam 0 µg/ml): 64 µg/mL | Beta-lactam MIC in the presence of BLI ([6]; vaborbactam 0.008 µg/ml): 64 µg/mL | Beta-lactam MIC in the presence of BLI ([6]; vaborbactam 0.031 µg/ml): 64 µg/mL | Beta-lactam MIC in the presence of BLI ([6]; vaborbactam 0.06 µg/ml): 64 µg/mL | Beta-lactam MIC in the presence of BLI ([6]; vaborbactam 0.5 µg/ml): 2 µg/mL
